Results reported in PMC8486872, “A rational blueprint for the design of chemically-controlled protein switches” (Nature Communications, 2021).
Values joined by “and” are separate entries in the source; they are usually repeats but may differ in a detail not shown here. Equal entries are not always repeated. Where two headings read alike, the source gives them in different places.

Tests used:
[1] = system: JAK/STAT pathway SEAP expression in HEK293T cells; test: CDH-GEMS receptor signaling SEAP assay; type: cell-based; conditions: Suppl Fig 9d
Description: To test modularity and performance robustness of the CDHs in different molecular contexts, we inserted these modules in the generalizable extracellular molecule sensor (GEMS) receptor signaling pathway platform[24] and built CDH-GEMS. In these constructs the CDHs are localized extracellularly and function as ectodomain switches, fused to the backbone of the erythropoietin receptor, and an intracellular interleukin 6 receptor domain which activates the JAK/STAT pathway (Fig. 3d). The CDH-GEMS trigger the activation of the JAK/STAT pathway by the dimerization of their subunits. Thus, the drugs are expected to split the CDHs inactivating the signaling pathway as assessed by the expression of the reporter protein SEAP. All three CDH-GEMS were responsive to their respective drugs dynamic response range varied from approximately 6-fold (CDH-2) to 8-fold (CDH-1,3) (Fig. 3e). […] The CDH-GEMS were also reversible upon intermittent drug treatment (Supplementary Fig. 7h, i). Despite that comparisons between CDH-TFs and CDH-GEMS are not straightforward due to differences in the reporter signaling pathways, we observe a general trend for the CDHs to present lower IC50s when used as extracellular modules, which is consistent with overcoming drug permeability issues in cells.
HEK293T cells were maintained in DMEM medium with 10% FBS (Gibco) and Pen/Strep (Thermo Fisher). Cells were maintained and split every two days at around 80% confluence. HEK293T cells were seeded 24 h before transfection, and transfected with the lipofectamine 3000 kit (Thermo Fisher). Plasmids were cotransfected according to the Table S7. For the drug OFF-switch experiments, drugs were added 12 h post transfection and incubated with cells for 24 h before the SEAP detection assay.
Secreted alkaline phosphatase (SEAP) activity (U/L) in cell culture supernatants was quantified by kinetic measurements at 405 nm (1 min/measurement for 30 cycles) of absorbance increase due to phosphatase-mediated hydrolysis of para-nitrophenyl phosphate (pNPP).
Apparent IC50s of SPR drug competition assay were calculated using three-parameter nonlinear regression in GraphPad Prism (Version 8.3.0). Representative data of cellular assays are presented as individual values and mean values (bars). n = 3 refers to biological replicates. All IC50/EC50 values of cellular assays (CDH-TF, CDH-GEMS, AIR-TF and AIR-GEMS) reported were calculated using four-parameter nonlinear regression ± s.d.
Supplementary Figure 9: Comparison of ON-state reporter expression of weak affinity variants of LD3 in CDH-1/2-GEMS platform. a) ON-state expression of CDH-1-GEMS with LD3 and LD3_v3. b) Drug dose-dependent responses in engineered cells determined for the CDH-1-GEMS with LD3 and LD3_v3. c) ON-state expression of CDH-2-GEMS with LD3 and LD3_v3. d) Drug dose-dependent responses in engineered cells determined for the CDH-2-GEMS with LD3 and LD3_v3. In the data shown HEK293T cells were […]
quantification was done 24 hours after drug treatment. a, c) The bar charts show the mean ± s.d. of n = 3 biologically independent samples overlaid with a scatter dot plot of the original data points. b, d) Each […]
parameter nonlinear regression.
(1 picture or pasted object on this page, not shown here)

[2] = system: SEAP expression in HEK293T cells; test: MISO designer cells (CDH-1 + CDH-3 dual switches); type: cell-based; design: SEAP / Bottom (best-fit value) / Top (best-fit value) / Span (best-fit value): unit not given here; conditions: for logIC50 (best-fit value): drug in nM; for SEAP, Drug-3 turn OFF CDH-3-TF (with 1 µM Drug-1): Fig S13f; for SEAP, Drug-3 turn OFF CDH-3-GEMS (+1 µM Drug-3): Fig S13g, representative data; for IC50: Homo sapiens, HEK-293T, read-out: IC50 (best-fit value)
Description: Fig. 5 Orthogonal chemical switches enable implementation of multi-input multi-output control modes in mammalian cells. a Scheme of multi-inputs multi-outputs (MIMO) designer cells where two drugs control two different outputs. b, c Cells were co-transfected with AIR-1/2-GEMS and CDH-3-TF regulate SEAP and Luciferase expression, respectively. […] AIR-1/2-GEMS coupled with SEAP expression circuits were co-transfected with CDH-1/2-TF circuits which control the Luciferase production. Respective drug concentrations ranged from 0.001 nM to 1 µM. […]
We then engineered MISO cells (Fig. 5d) with CDH-1-TF and CDH-3-TF dual switches (Fig. 5e) that encode OFF behaviors controlled by Drug-1 and Drug-3. […] This output behavior is distinct from the typical SISO systems which only show two persistent states (high, low) (Fig. 2c, f). […] This type of output in biological systems could be utilized to produce graded levels of responses that are robust to minor oscillations in drug concentrations, and could be used to dissect fundamental biological processes but also to provide persistent response levels in translational applications.
1-TF and CDH-3-TF circuits. Drug-1 concentrations ranged from 0.001 nM to 1 µM (left) and 1 µM Drug-1 with serial diluted Drug-3 from 0.001 nM to 1 µM (right). g) Quantification of SEAP activity controlled […]
by CDH-1-GEMS and CDH-3-GEMS circuits. […]
Luciferase production (l). b-k) Each data point represents the mean of n = 3 biological replicates, and the dose-dependent curve were fitted using four-parameter nonlinear regression.

[3] = Fig5e SEAP, CDH-3-TF, four-parameter fit
[4] = Fig5f SEAP, CDH-3-GEMS, three-parameter fit

CC1(C)CCC(CN2CCN(c3ccc(C(=O)NS(=O)(=O)c4ccc(NCC5CCOCC5)c([N+](=O)[O-])c4)c(Oc4cnc5[nH]ccc5c4)c3)CC2)=C(c2ccc(Cl)cc2)C1 [Drug-2, Venetoclax]
SEAP % ([1]; Bcl2:LD3, 0.001 nM): 300.653% and 318.178% and 392.457%
SEAP % ([1]; Bcl2:LD3, 0.01 nM): 308.454% and 345.509% and 340.557%
SEAP % ([1]; Bcl2:LD3, 0.1 nM): 274.777% and 330.791% and 315.073%
SEAP % ([1]; Bcl2:LD3, 1 nM): 266.802% and 312.808% and 313.179%
SEAP % ([1]; Bcl2:LD3, 10 nM): 230.526% and 261.334% and 264.64%
SEAP % ([1]; Bcl2:LD3, 50 nM): 182.557% and 182.048% and 191.603%
SEAP % ([1]; Bcl2:LD3, 100 nM): 137.415% and 148.555% and 171.413%
SEAP % ([1]; Bcl2:LD3, 500 nM): 103.855% and 121.158% and 118.471%
SEAP % ([1]; Bcl2:LD3, 1000 nM): 85.4687% and 78.7046% and 88.4921%
SEAP % ([1]; Bcl2:LD3_v3, 0.001 nM): 435.755% and 579.505% and 634.353%
SEAP % ([1]; Bcl2:LD3_v3, 0.01 nM): 426.219% and 513.058% and 543.118%
SEAP % ([1]; Bcl2:LD3_v3, 0.1 nM): 389.885% and 497.895% and 507.442%
SEAP % ([1]; Bcl2:LD3_v3, 1 nM): 349.489% and 416.083% and 425.558%
SEAP % ([1]; Bcl2:LD3_v3, 10 nM): 179.661% and 237.904% and 242.508%
SEAP % ([1]; Bcl2:LD3_v3, 50 nM): 112.482% and 132.539% and 150.605%
SEAP % ([1]; Bcl2:LD3_v3, 100 nM): 97.6884% and 119.034% and 118.118%
SEAP % ([1]; Bcl2:LD3_v3, 500 nM): 69.1684% and 95.9179% and 92.604%
SEAP % ([1]; Bcl2:LD3_v3, 1000 nM): 52.9029% and 66.0602% and 70.7894%

COc1cc2c(cc1OC(C)C)[C@H](c1ccc(Cl)cc1)N(c1ccc(N(C)C[C@H]3CC[C@H](N4CCN(C)C(=O)C4)CC3)cc1)C(=O)C2 [Drug-3, NVP-CGM097]
Bottom (best-fit value) [2, 3]: 17.47
HillSlope (best-fit value) [2, 3]: -0.6148
Span (best-fit value) [2, 3]: 17.06
Top (best-fit value) [2, 3]: 34.53
logIC50 (best-fit value) [2, 3]: 1.333
SEAP ([2]; Fig5e, turn OFF CDH-3-TF, 0.001 nM): 33.8408 and 34.0469 and 34.3351
SEAP ([2]; Fig5e, turn OFF CDH-3-TF, 0.01 nM): 29.7183 and 31.0605 and 34.2655
SEAP ([2]; Fig5e, turn OFF CDH-3-TF, 0.1 nM): 37.5532 and 35.9265 and 39.0056
SEAP ([2]; Fig5e, turn OFF CDH-3-TF, 1 nM): 35.3902 and 29.1113 and 33.3839
SEAP ([2]; Fig5e, turn OFF CDH-3-TF, 10 nM): 29.3646 and 23.7323 and 25.8725
SEAP ([2]; Fig5e, turn OFF CDH-3-TF, 100 nM): 25.079 and 20.2253 and 26.0755
SEAP ([2]; Fig5e, turn OFF CDH-3-TF, 1000 nM): 15.9296 and 18.8913 and 19.9566
Bottom (best-fit value) [2, 4]: 53.47
Span (best-fit value) [2, 4]: 48.26
Top (best-fit value) [2, 4]: 101.7
logIC50 (best-fit value) [2, 4]: 0.4646
SEAP ([2]; Fig5f, turn OFF CDH-3-GEMS, 0.001 nM): 113.362 and 89.612 and 99.5052
SEAP ([2]; Fig5f, turn OFF CDH-3-GEMS, 0.01 nM): 121.028 and 91.7365 and 92.479
SEAP ([2]; Fig5f, turn OFF CDH-3-GEMS, 0.1 nM): 104.447 and 97.6051 and 99.9447
SEAP ([2]; Fig5f, turn OFF CDH-3-GEMS, 1 nM): 100.353 and 82.6179 and 86.7829
SEAP ([2]; Fig5f, turn OFF CDH-3-GEMS, 10 nM): 58.8118 and 64.1853 and 65.9179
SEAP ([2]; Fig5f, turn OFF CDH-3-GEMS, 100 nM): 45.2413 and 57.2529 and 77.3068
SEAP ([2]; Fig5f, turn OFF CDH-3-GEMS, 1000 nM): 32.455 and 54.8353 and 61.4484
SEAP, Drug-3 turn OFF CDH-3-TF (with 1 µM Drug-1) ([2]; Drug-3 0.001 nM with 1 µM Drug-1): 20.0495 U/L and 20.062 U/L and 15.0342 U/L
SEAP, Drug-3 turn OFF CDH-3-TF (with 1 µM Drug-1) ([2]; Drug-3 0.01 nM with 1 µM Drug-1): 17.0461 U/L and 19.1502 U/L and 14.3967 U/L
SEAP, Drug-3 turn OFF CDH-3-TF (with 1 µM Drug-1) ([2]; Drug-3 0.1 nM with 1 µM Drug-1): 19.7901 U/L and 16.3361 U/L and 16.2198 U/L
SEAP, Drug-3 turn OFF CDH-3-TF (with 1 µM Drug-1) ([2]; Drug-3 1 nM with 1 µM Drug-1): 20.2218 U/L and 16.2578 U/L and 17.1111 U/L
SEAP, Drug-3 turn OFF CDH-3-TF (with 1 µM Drug-1) ([2]; Drug-3 10 nM with 1 µM Drug-1): 16.1201 U/L and 11.9157 U/L and 15.1062 U/L
SEAP, Drug-3 turn OFF CDH-3-TF (with 1 µM Drug-1) ([2]; Drug-3 100 nM with 1 µM Drug-1): 12.136 U/L and 6.982 U/L and 12.7567 U/L
SEAP, Drug-3 turn OFF CDH-3-TF (with 1 µM Drug-1) ([2]; Drug-3 1000 nM with 1 µM Drug-1): 12.5352 U/L and 7.0164 U/L and 6.482 U/L
SEAP, Drug-3 turn OFF CDH-3-GEMS (+1 µM Drug-3) ([2]; Drug-3 0.001 nM + 1 µM Drug-3): 32.0934 U/L and 36.9962 U/L and 29.2725 U/L
SEAP, Drug-3 turn OFF CDH-3-GEMS (+1 µM Drug-3) ([2]; Drug-3 0.01 nM + 1 µM Drug-3): 28.8246 U/L and 27.8451 U/L and 33.3513 U/L
SEAP, Drug-3 turn OFF CDH-3-GEMS (+1 µM Drug-3) ([2]; Drug-3 0.1 nM + 1 µM Drug-3): 25.7325 U/L and 31.532 U/L and 32.3299 U/L
SEAP, Drug-3 turn OFF CDH-3-GEMS (+1 µM Drug-3) ([2]; Drug-3 1 nM + 1 µM Drug-3): 22.1832 U/L and 28.8305 U/L and 36.3315 U/L
SEAP, Drug-3 turn OFF CDH-3-GEMS (+1 µM Drug-3) ([2]; Drug-3 10 nM + 1 µM Drug-3): 20.2059 U/L and 25.0579 U/L and 21.1125 U/L
SEAP, Drug-3 turn OFF CDH-3-GEMS (+1 µM Drug-3) ([2]; Drug-3 100 nM + 1 µM Drug-3): 19.7003 U/L and 17.1154 U/L and 24.8794 U/L
SEAP, Drug-3 turn OFF CDH-3-GEMS (+1 µM Drug-3) ([2]; Drug-3 1000 nM + 1 µM Drug-3): 16.9947 U/L and 17.5781 U/L and 20.7969 U/L
IC50 ([2]; Fig5e SEAP, turn OFF CDH-3-TF, four-parameter fit): 21.5 nM
IC50 ([2]; Fig5f SEAP, turn OFF CDH-3-GEMS, three-parameter fit): 2.92 nM
